Counter-ions that a name gives are not always drawn.
Target: T1, human IP receptor (PGI2 receptor) (Homo sapiens, UniProt P43119)
T1 construct: gene PTGIR
Assay: competitive binding assay with membrane fractions of CHO or COS-7 cells expressing the receptor; also cAMP increase in COS-7 cells expressing human IP

T1 sequence (P43119 1-383): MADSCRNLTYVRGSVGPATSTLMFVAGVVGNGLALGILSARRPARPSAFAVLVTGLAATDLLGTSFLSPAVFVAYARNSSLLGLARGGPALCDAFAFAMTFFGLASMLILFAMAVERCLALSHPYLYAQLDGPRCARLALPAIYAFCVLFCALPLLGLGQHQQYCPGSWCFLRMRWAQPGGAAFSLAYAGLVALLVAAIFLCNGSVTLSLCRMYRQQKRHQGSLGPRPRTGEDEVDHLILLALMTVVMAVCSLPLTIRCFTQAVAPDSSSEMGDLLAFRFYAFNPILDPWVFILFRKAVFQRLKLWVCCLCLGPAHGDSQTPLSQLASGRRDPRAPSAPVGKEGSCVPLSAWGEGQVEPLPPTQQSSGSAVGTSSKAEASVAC

SMILES: O=C(O)COC1CCN(CCN(C(=O)c2ccc3c(c2)OCO3)c2ccc(Cl)cc2)CC1 [compound 2, 2-((1-(2-(N-(4-Chlorophenyl)benzo[d][1,3]dioxole-5-carboxamido)ethyl)piperidin-4-yl)oxy)acetic acid phosphoric acid salt]
- Ki: 310 nM
